Results reported in patent US5744462A, “Steroids useful as anti-cancer and anti-obesity agents” (Research Corporation Technologies, Inc., priority 1995, dated 1998).

Legend:
mouse skin DNA = test: (3H) DMBA binding to skin DNA; assay type: in vivo, mouse (A/J); conditions: for effect on 3H-DMBA binding to skin DNA: mice
[1] = system: many different cell lines; conditions: 10^-5 M to 10^-4 M; cited from earlier work
mouse epidermis = conditions: cited from earlier work
[2] = system: mouse epidermis (TPA stimulated 3H-thymidine incorporation); test: TPA stimulation of 3H-thymidine incorporation in mouse epidermis, oral steroid; assay type: in vivo, mouse (male ICR)
Method: (§1) Tumor promoters, such as TPA, stimulate hyperplasia and DNA synthesis when applied to the skin, and it is believed that this stimulation is an important step in the enhancement of tumorigenesis.
Male ICR mice were orally intubated with steroid suspended in sesame oil (0.5 ml/mouse) at the indicated dose. Mice not receiving steroid were given sesame oil alone. One hour later mice received topical application of TPA and 20 hours later the rate of ^3 H-thymidine incorporation into the epidermis was determined as described in Pashko, L. L., Schwartz, A. G., Abou-Gharbia, M., and Swern, D. (1981), Inhibition of DNA synthesis in mouse epidermis and breast epithelium by dehydroepiandrosterone and related steroids, Carcinogenesis, 2,-717-721.
Experimental conditions are the same as in Table 3.

[3] = long term treatment, NZB mice; cited from earlier work
[4] = system: cultured rat kidney epithelial cell line; conditions: cited from earlier work
[5] = oral; cited from earlier work
liver catalase = test: Liver catalase activity after three weeks of diet treatment; assay type: in vivo, mouse (female Balb/c)
Method: Female Balb/c mice were housed in polycarbonate cages (6/mice/cage) in animal quarters maintained at 24°±1° C. with 12 hours of light and 12 hours of dark each day. The mice were placed on a diet containing either DHEA, 8354, A, B clofibrate or with no addition. Three weeks later the mice were killed, the livers were perfused with cold saline, weighed, and 5% liver homogenates were prepared for the determination of catalase activity by the spectrophotometric method of Luck (H. Luck, in Method in Enzyme Analysis, H. U. Bergmeyer, Ed. (Verlag Chemie, Weinheim/Bergstrasse, Germany, 1965)). Total protein was measured by the method of Lowry, et al. (O. H. Lowry, N. J. Rosebrough, A. L. Farr, R. J. Randall, J. Biol. Chem., 193, 265 (1951)).

[6] = Anti-weight effect in mice, general statements; assay type: in vivo, mouse
Excerpt: (Table 9 vs Table 5 and Table 6). […] Thus the cancer preventive the cancer preventive effect of DHEA may result indirectly from its anti-weight action rather than from a direct effect of DHEA or target cells.

[7] = system: mouse epidermal DNA (TPA stimulated 3H-thymidine incorporation); test: TPA stimulation of 3H-thymidine incorporation in epidermis, topical steroid; assay type: in vivo, mouse (A/J); conditions: for SPECIFIC ACTIVITY, TPA stimulated 3H-thymidine incorporation: no steroid 66, TPA alone 174
Method: as §1
Incorporation of ^3 H-thymidine into A/J mouse epidermal DNA was determined as described in Pashko, L. L., Schwartz, A. G., Abou-Gharbia, M. and Swern, D. (1981), Inhibition of DNA synthesis in mouse epidermis and breast epithelium by dehydroepiandrosterone and related steroids, Carcinogenesis, 2, 717-721. Values are mean±SD for 3 separately treated mice in each group 20 hours after TPA application. DHEA or testosterone was added topically in 0.2 ml acetone one hour before TPA addition.

[8] = target: purified bovine adrenal G6PDH (Bos taurus, UniProt F1MMK2); test: G6PDH inhibition test; assay type: biochemical; conditions: individual determinations
purified bovine adrenal G6PDH, sequence (F1MMK2 31-70): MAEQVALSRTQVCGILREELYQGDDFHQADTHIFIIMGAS
purified bovine adrenal G6PDH, sequence (F1MMK2 101-575): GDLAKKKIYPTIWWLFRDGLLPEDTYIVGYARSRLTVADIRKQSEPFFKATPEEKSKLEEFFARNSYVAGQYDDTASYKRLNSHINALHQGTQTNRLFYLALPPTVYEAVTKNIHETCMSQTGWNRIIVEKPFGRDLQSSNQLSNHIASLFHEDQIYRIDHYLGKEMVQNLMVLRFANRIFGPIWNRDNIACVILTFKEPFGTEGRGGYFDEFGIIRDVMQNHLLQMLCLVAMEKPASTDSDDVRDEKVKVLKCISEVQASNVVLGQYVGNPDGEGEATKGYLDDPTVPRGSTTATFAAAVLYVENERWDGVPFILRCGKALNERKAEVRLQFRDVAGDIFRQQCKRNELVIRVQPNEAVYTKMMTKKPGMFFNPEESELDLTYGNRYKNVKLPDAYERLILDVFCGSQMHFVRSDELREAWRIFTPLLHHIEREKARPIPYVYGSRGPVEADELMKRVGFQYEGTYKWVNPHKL
Excerpt: The compound listed below are screened as inhibitors of purified bovine adrenal G6PDH activity as one predictor of cancer preventive action. The assay for testing the inhibition of purified bovine adrenal G6PDH is according to the procedure by Oertell, G. W. and Rebelein, I. in Biochem. Biophys. Acta, 184, 459-460 (1969).

[9] = Estrogenic and anti-estrogenic activity, uterine weight; assay type: in vivo, rat (female CD); conditions: 60 mg/kg s.c. for 3 days, DHEA significantly greater than control
Method: Estrogenic and Anti-Estrogenic Activity
Female CD rats, 26-27 days old, were injected subcutaneously for 3 days with one of the compounds of the present invention at 60 mg/kg in propylene glycol. Controls received propylene glycol alone. On the 4th day, the rats were killed and the uteri were dissected out and weighed.

[10] = without suppressing appetite; cited from earlier work
[11] = Anti-obesity action, body weight, female Balb/c mice; assay type: in vivo, mouse (female Balb/c); conditions: 0.25% in diet
Method: Female Balb/c (8 weeks old) mice were obtained from
the Jackson Laboratory and were housed in polycarbonate cages
(6 mice/cage) in animal quarters maintained at 24 ± 1° C. with
12 hours of light and 12 hours of darkness each day. One
week after arrival, the mice were placed on a diet containing
either DHEA, 8354, or without steroid. Animals were weighed

Q: What does the source list for `C[C@]12CC[C@H](O)CC1=CC[C@@H]1[C@@H]2CC[C@]2(C)C(=O)CC[C@@H]12` [DHEA, Dehydroepiandrosterone]?
A: SPECIFIC ACTIVITY, (3H) DMBA binding to skin DNA (mouse skin DNA; 400 ug topical one hour before DMBA, ad libitum fed 116 ± 5.2): 66 ± 13 cpm/ug DNA; effect on 3H-DMBA binding to skin DNA (mouse skin DNA; four weeks, 400 mg/kg): does inhibit ^3 H-DMBA binding to skin DNA; effect on 3H-DMBA binding to skin DNA (mouse skin DNA; oral, doses well below 400 mg/kg): inactive; effect on 3H-DMBA binding to skin DNA (mouse skin DNA; single administration, 400 mg/kg): does not inhibit ^3 H-DMBA binding to skin DNA; effect on rate of binding of 3H-DMBA to skin DNA (mouse skin DNA; topical, in words (Table 4)): inhibits the rate of binding; growth of cell lines in culture [1]: slows the growth of many different cell lines in culture; capacity of TPA to stimulate 3H-thymidine incorporation (mouse epidermis): antagonizes; SPECIFIC ACTIVITY, TPA stimulated 3H-thymidine incorporation ([2]; Table 9, oral 400 mg/kg, no steroid 55.1, TPA alone 118): 50.9 ± 3.2 cpm/ug DNA; effect on TPA stimulation in 3H-thymidine incorporation ([2]; oral, mice, doses well below 400 mg/kg, comparable to food restriction): inactive; effect on TPA stimulation of 3H-thymidine incorporation ([2]; single administration, 400 mg/kg, mice, compared with food restriction or topical 400 ug DHEA): does not inhibit the TPA stimulation in epidermal ^3 H-thymidine incorporation to a degree comparable; rate of development of the autoimmune anemia [3]: significantly inhibits the rate of development of the autoimmune anemia; capacity of TPA to stimulate 3H-thymidine incorporation [4]: antagonizes; survival [5]: prolonged the survival; CATALASE ACTIVITY (liver catalase; 0.25% of diet, control 31.1 ± 6.7, DHEA p < 0.05, clofibrate p < 0.001 vs control): 97.8 ± 24 Units per mg protein; increase in liver catalase specific activity (liver catalase; 0.25%, vs control): threefold; catalase activity, in words (liver catalase; mice, 0.25% of diet): stimulated catalase activity; anti-weight effect ([6]; approximately 400 mg/kg daily, repeatedly over a few weeks): produces an anti-weight effect; effect on weight: cause of the anti-weight effect ([6]; four weeks, 400 mg/kg): due to both a reduction in food intake and to a decrease in the efficiency of food utilization; SPECIFIC ACTIVITY, TPA stimulated 3H-thymidine incorporation ([7]; topical 100 ug): 52 ± 5.8 cpm/ug DNA; SPECIFIC ACTIVITY, TPA stimulated 3H-thymidine incorporation ([7]; topical 400 ug): 22 ± 6.5 cpm/ug DNA; effect on TPA stimulation of 3H-thymidine incorporation ([7]; topical, in words (Table 5)): abolishes this stimulation; Percent Inhibition of G6PDH ([8]; 10^-5 M): 57%; inhibition at 10 µM ([8]; 10^-5 M, read-out: Percent Inhibition of G6PDH): 53%; inhibition at 1 µM ([8]; 10^-6 M, read-out: Percent Inhibition of G6PDH): 17%; Mean Uterine Weight ± S.D. ([9]; control 2.02 ± 0.28, p < .001): 4.17 ± 0.48 mg/100 gm body weight; Mean Uterine Weigh ± S.D. ([9]; Table 2a, control 1.95 ± 0.22, p < 0.001): 3.93 ± 0.71; effect on obesity on long-term administration [10]: prevented the development of obesity without suppressing appetite; mean weekly weight ± S.D. ([11]; week 0, control 17.5 ± 1.4): 17.5 ± 1.5 grams; mean weekly weight ± S.D. ([11]; week 1, control 19.9 ± 1.2): 20.0 ± 0.9 grams; mean weekly weight ± S.D. ([11]; week 2, control 20.6 ± 1.0): 20.6 ± 0.9 grams; mean weekly weight ± S.D. ([11]; week 3, control 21.8 ± 0.8): 21.3 ± 1.3 grams
